{"source": "patent US6682739B1", "about": "“Methods of inhibiting osteoclastogenesis” (The Trustees of the University of Pennsylvania, priority 1999, dated 2004)", "molecules": {"B1": {"name": "WP9QY (peptide)", "peptide": "YCWSQYLCY", "modifications": "disulfide 2-8", "notes": "Synthetic exocyclic peptide; also called WP9QY peptide; peptidomimetic (WP9QY)"}, "B2": {"name": "OPG: naturally occurring secreted protein with homology to members of the TNF receptor family; positive control in the TRAP assay (protein, UniProt O00300 22-401, looked up)", "Tumor necrosis factor …": "ETFPPKYLHYDEETSHQLLCDKCPPGTYLKQHCTAKWKTVCAPCPDHYYTDSWHTSDECLYCSPVCKELQYVKQECNRTHNRVCECKEGRYLEIEFCLKHRSCPPGFGVVQAGTPERNTVCKRCPDGFFSNETSSKAPCRKHTNCSVFGLLLTQKGNATHDNICSGNSESTQKCGIDVTLCEEAFFRFAVPTKFTPNWLSVLVDNLPGTKVNAESVERIKRQHSSQEQTFQLLKLWKHQNKDQDIVKKIIQDIDLCENSVQRHIGHANLTFEQLRSLMESLPGKKVGAEDIEKTIKACKPSDQILKLLSLWRIKNGDQDTLKGLMHALKHSKTYHFPKTVTQSLKKTIRFLHSFTMYKLYQKLFLEMIGNQVQSVKISCL"}}, "key": {"[1]": {"system": "osteoclast formation (osteoclastogenesis)", "settings": "co-culture induced by 1alpha,25-dihydroxyvitamin D3 and PGE2"}, "[2]": {"system": "TNF-α receptor", "settings": "L929 lymphocytes; cited from earlier work"}, "[3]": {"system": "TRANCE-induced marrow cultures (RANK Ligand/RANK interaction)", "test": "TRANCE-induced marrow cultures", "type": "cell-based", "settings": "reciprocal dose-dependence of WP9QY and TRANCE"}, "[4]": {"target": "T1, TNF (UniProt P01375 77-233)", "T1 construct": "also called TNF-alpha; Tumor Necrosis Factor", "T1 sequence (P01375 77-233 limits assumed)": "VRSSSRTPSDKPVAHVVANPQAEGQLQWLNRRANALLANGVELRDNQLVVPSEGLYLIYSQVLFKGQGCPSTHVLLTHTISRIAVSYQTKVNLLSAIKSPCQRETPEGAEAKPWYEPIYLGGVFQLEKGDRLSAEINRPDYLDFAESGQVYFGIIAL", "test": "inhibition of the TNF/TNF receptor interaction; format not described in Example 1"}, "[5]": {"system": "osteoclastogenesis and associated bone resorption", "settings": "administration in vivo; animal models that mimic osteopenic disorders; cited from earlier work"}}, "note": "Positions of bridges follow the written chain, without caps; N, C: chain ends. No end group written: not given here."}
{"molecule": "CC(C)C[C@@H]1NC(=O)[C@H](Cc2ccc(O)cc2)NC(=O)[C@H](CCC(N)=O)NC(=O)[C@H](CO)NC(=O)[C@H](Cc2c[nH]c3ccccc23)NC(=O)[C@@H](NC(=O)[C@@H](N)Cc2ccc(O)cc2)CSSC[C@@H](C(=O)N[C@@H](Cc2ccc(O)cc2)C(=O)O)NC1=O", "note": "[WP9QY, YC WSQYL CY]", "values": [{"measurement": "inhibition of osteoclastogenesis, in words", "setting": "[1]", "value": "dose- and time-dependently inhibited"}, {"measurement": "IC50", "setting": "[1]; read-out: IC50 for inhibition of osteoclastogenesis, peptide tested at about 5 μM to about 500 μM", "value": 250, "unit": "µM"}, {"measurement": "antagonism of the effects of TNF-binding to the TNF-α receptor", "setting": "[2]", "value": "efficiently antagonized"}, {"measurement": "effect on TRANCE-induced marrow cultures", "setting": "[3]", "value": "inhibits"}]}
{"molecule": "B1", "values": [{"measurement": "IC50", "setting": "[4]", "value": 5, "unit": "µM"}]}
{"molecule": "B2", "values": [{"measurement": "effect on osteoclastogenesis and associated bone resorption in vivo", "setting": "[5]", "value": "inhibits osteoclastogenesis and associated bone resorption"}]}
